Results from patent US10149839B2, “Chemical compounds” (AstraZeneca AB, priority 2016, dated 2018).
In brackets after ≈: the same amount, converted by molar mass. Each block holds one compound with its values, some of them ahead of it.

What was measured:
[1] = Human plasma protein binding (equilibrium dialysis); assay type: in vitro ADME; conditions: dialysis 18 hours
[2] = Thermodynamic solubility (shake flask); assay type: physicochemical; conditions: aqueous phosphate buffer pH 7.4, 24 hours
[3] = physchem; conditions: 1-octanol/aqueous buffer, pH 7.4
[4] = target: Estrogen Receptor (ERα) in MCF-7 cells (Homo sapiens (Human), UniProt P03372); assay: MCF-7 ER down-regulation assay (immuno-fluorescence); assay type: cell-based; conditions: for IC50: 18-22 hours incubation; for % downregulation: shown in brackets where not >90%
[5] = aqueous phosphate buffer, 25 °C, pH 7.4, aqueous buffer, thermodynamic from solid

Sequence of Estrogen Receptor (ERα) in MCF-7 cells (P03372 whole entry): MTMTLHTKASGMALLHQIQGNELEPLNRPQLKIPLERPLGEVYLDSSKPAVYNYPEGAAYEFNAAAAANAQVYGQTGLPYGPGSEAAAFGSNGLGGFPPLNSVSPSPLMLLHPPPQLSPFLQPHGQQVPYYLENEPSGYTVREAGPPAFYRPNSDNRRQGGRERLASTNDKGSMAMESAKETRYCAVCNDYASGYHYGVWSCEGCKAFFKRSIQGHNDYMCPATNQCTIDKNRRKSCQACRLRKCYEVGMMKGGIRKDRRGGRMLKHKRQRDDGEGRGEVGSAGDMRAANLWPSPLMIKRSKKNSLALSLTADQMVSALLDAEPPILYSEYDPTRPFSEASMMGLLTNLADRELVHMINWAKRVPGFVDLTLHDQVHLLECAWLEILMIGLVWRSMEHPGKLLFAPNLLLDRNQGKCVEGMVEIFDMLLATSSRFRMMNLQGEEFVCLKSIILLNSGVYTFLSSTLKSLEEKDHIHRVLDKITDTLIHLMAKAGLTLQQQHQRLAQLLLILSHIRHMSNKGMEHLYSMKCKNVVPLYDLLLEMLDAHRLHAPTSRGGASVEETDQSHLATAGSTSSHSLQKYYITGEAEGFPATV

Structure (SMILES): C[C@@H]1Cc2c([nH]c3ccccc23)[C@@H](c2c(F)cc(OCCNCCCF)cc2F)N1C[C@H](F)CF (single isomer, unassigned) [Example 15]
- Human plasma protein binding (% free) [1]: 1.5 % free
- solubility at 24 h [2, 5]: 83 µM (≈ 41.1 µg/mL)
- logD [3]: 3.4

Structure (SMILES): C[C@@H]1Cc2c([nH]c3ccccc23)[C@@H](c2ccc(OCCNCCCF)cc2)N1CC(F)CF (single isomer, unassigned) [Example 25]
- Human plasma protein binding (% free) [1]: 1.6 % free
- solubility at 24 h ([2]; 25° C.): 135 µM (≈ 62 µg/mL)
- IC50 [4]: 0.36 nM
- logD [3]: 3

Structure (SMILES): C[C@@H]1Cc2c([nH]c3ccccc23)[C@@H](c2c(F)cc(OCCNCCCF)cc2F)N1CC(F)F [Example 13, N-(2-(4-((1R,3R)-2-(2,2-difluoroethyl)-3-methyl-2,3,4,9-tetrahydro-1H-pyrido[3,4-b]indol-1-yl)-3,5-difluorophenoxy)ethyl)-3-fluoropropan-1-amine]
- Human plasma protein binding (% free) [1]: 1.6 % free
- solubility at 24 h [2, 5]: 150 µM (≈ 72.2 µg/mL)
- logD [3]: 3.4

Structure (SMILES): CC(CNCCCF)Oc1cc(F)c([C@@H]2c3[nH]c4ccccc4c3C[C@@H](C)N2CC(C)(C)F)c(F)c1 (stereo partly drawn) [Example 19, 2-(3,5-difluoro-4-((1R,3R)-2-(2-fluoro-2-methylpropyl)-3-methyl-2,3,4,9-tetrahydro-1H-pyrido[3,4-b]indol-1-yl)phenoxy)-N-(3-fluoropropyl)propan-1-amine]
- Human plasma protein binding (% free) [1]: 0.56 % free
- solubility at 24 h [2, 5]: 11 µM (≈ 5.56 µg/mL)
- IC50 [4]: 0.41 nM
- % downregulation [4]: (68%)
- logD [3]: > 4.4

Structure (SMILES): C[C@@H]1Cc2c([nH]c3ccccc23)[C@@H](c2c(F)cc(OCC(CO)NCCCF)cc2F)N1CC(C)(C)F (stereo partly drawn) [Example 20, 3-(3,5-difluoro-4-((1R,3R)-2-(2-fluoro-2-methylpropyl)-3-methyl-2,3,4,9-tetrahydro-1H-pyrido[3,4-b]indol-1-yl)phenoxy)-2-((3-fluoropropyl)amino)propan-1-ol]
- Human plasma protein binding (% free) [1]: <0.30 % free
- solubility at 24 h [2, 5]: 18 µM (≈ 9.39 µg/mL)
- IC50 [4]: 0.26 nM
- logD [3]: > 3.9

Structure (SMILES): C[C@@H]1Cc2c([nH]c3ccccc23)[C@@H](c2ccc(OCCNCCCF)cc2)N1CC1(F)CC1 [Example 23, 3-fluoro-N-(2-(4-((1R,3R)-2-((1-fluorocyclopropyl)methyl)-3-methyl-2,3,4,9-tetrahydro-1H-pyrido[3,4-b]indol-1-yl)phenoxy)ethyl)propan-1-amine]
- Human plasma protein binding (% free) [1]: 1.7 % free
- solubility at 24 h [2, 5]: 122 µM (≈ 55.3 µg/mL)
- logD [3]: 3.3

Structure (SMILES): C[C@@H]1Cc2c([nH]c3ccccc23)[C@@H](c2ccc(OCCNCCCF)cc2)N1CC1(F)COC1 [Example 24, 3-fluoro-N-(2-(4-((1R,3R)-2-((3-fluorooxetan-3-yl)methyl)-3-methyl-2,3,4,9-tetrahydro-1H-pyrido[3,4-b]indol-1-yl)phenoxy)ethyl)propan-1-amine]
- solubility at 24 h [2, 5]: 370 µM (≈ 174 µg/mL)

Structure (SMILES): C[C@@H]1Cc2c([nH]c3ccccc23)[C@@H](c2ccc(OC[C@H](C)NCCCF)cc2)N1CC1(F)COC1 [Example 27, 3-fluoro-N-((S)-1-(4-((1R,3R)-2-((3-fluorooxetan-3-yl)methyl)-3-methyl-2,3,4,9-tetrahydro-1H-pyrido[3,4-b]indol-1-yl)phenoxy)propan-2-yl)propan-1-amine]
- Human plasma protein binding (% free) [1]: 5.2 % free
- solubility at 24 h [2, 5]: 281 µM (≈ 136 µg/mL)
- IC50 [4]: 1.5 nM
- % downregulation [4]: (79%)
- logD [3]: 3

Structure (SMILES): C[C@@H]1Cc2c([nH]c3ccccc23)[C@@H](c2ccc(OCCNCCCF)cc2C#N)N1CC1(F)CC1 [Example 29, 2-((1R,3R)-2-((1-fluorocyclopropyl)methyl)-3-methyl-2,3,4,9-tetrahydro-1H-pyrido[3,4-b]indol-1-yl)-5-(2-((3-fluoropropyl)amino)ethoxy)benzonitrile]
- IC50 [4]: 19 nM
- % downregulation [4]: (57%)

Structure (SMILES): COCC(C)(F)CN1[C@H](c2c(F)cc(OCCNCCCF)cc2F)c2[nH]c3ccccc3c2C[C@H]1C (stereo partly drawn) [Example 50, N-(2-(3,5-difluoro-4-((1R,3R)-2-(2-fluoro-3-methoxy-2-methylpropyl)-3-methyl-2,3,4,9-tetrahydro-1H-pyrido[3,4-b]indol-1-yl)phenoxy)ethyl)-3-fluoropropan-1-amine]
- Human plasma protein binding (% free) [1]: 0.61 % free
- solubility at 24 h [2, 5]: 47 µM (≈ 24.5 µg/mL)
- logD [3]: 3.9

Structure (SMILES): COc1cc(NCCNCCCF)ncc1[C@@H]1c2[nH]c3ccccc3c2C[C@@H](C)N1CC(F)(F)CO [Example 65, 2,2-difluoro-3-((1R,3R)-1-(6-((2-((3-fluoropropyl)amino)ethyl)amino)-4-methoxypyridin-3-yl)-3-methyl-1,3,4,9-tetrahydro-2H-pyrido[3,4-b]indol-2-yl)propan-1-ol]
- Human plasma protein binding (% free) [1]: 14 % free
- solubility at 24 h [2, 5]: 911 µM (≈ 461 µg/mL)
- logD [3]: 2.1

Structure (SMILES): COc1cc(NCCNCCCF)ncc1[C@@H]1c2[nH]c3ccccc3c2C[C@@H](C)N1CC(F)F [Example 67, N1-(5-((1R,3R)-2-(2,2-difluoroethyl)-3-methyl-2,3,4,9-tetrahydro-1H-pyrido[3,4-b]indol-1-yl)-4-methoxypyridin-2-yl)-N2-(3-fluoropropyl)ethane-1,2-diamine]
- solubility at 24 h [2, 5]: > 1000 µM
- IC50 [4]: 0.87 nM
- logD [3]: 2.5

Structure (SMILES): COc1cc(NCCNCCCF)ncc1[C@@H]1c2[nH]c3ccccc3c2C[C@@H](C)N1CC(C)(F)F [Example 68, N1-(5-((1R,3R)-2-(2,2-difluoropropyl)-3-methyl-2,3,4,9-tetrahydro-1H-pyrido[3,4-b]indol-1-yl)-4-methoxypyridin-2-yl)-N2-(3-fluoropropyl)ethane-1,2-diamine]
- solubility at 24 h [2, 5]: 438 µM (≈ 214 µg/mL)
- IC50 [4]: 0.33 nM
- logD [3]: 3.1

Structure (SMILES): C[C@@H]1Cc2c([nH]c3ccccc23)[C@@H](c2c(F)cc(OCCNCCCF)cc2F)N1CC1(CF)COC1 [Example 72, N-(2-(3,5-difluoro-4-((1R,3R)-2-((3-(fluoromethyl)oxetan-3-yl)methyl)-3-methyl-2,3,4,9-tetrahydro-1H-pyrido[3,4-b]indol-1-yl)phenoxy)ethyl)-3-fluoropropan-1-amine]
- solubility at 24 h [2, 5]: 96 µM (≈ 49.9 µg/mL)
- logD [3]: 3.4

Structure (SMILES): COc1nc(NCCNCCCF)ccc1[C@@H]1c2[nH]c3ccccc3c2C[C@@H](C)N1CC(F)F [Example 76, N1-(5-((1R,3R)-2-(2,2-difluoroethyl)-3-methyl-2,3,4,9-tetrahydro-1H-pyrido[3,4-b]indol-1-yl)-6-methoxypyridin-2-yl)-N2-(3-fluoropropyl)ethane-1,2-diamine]
- solubility at 24 h [2, 5]: 335 µM (≈ 159 µg/mL)
- IC50 [4]: 0.32 nM
- logD [3]: 3

The next lines start with the values.

- Human plasma protein binding (% free) [1]: 3.9 % free
- solubility at 24 h [2, 5]: 629 µM (≈ 319 µg/mL)
- IC50 [4]: 0.086 nM
- % downregulation [4]: (85%)
- logD [3]: 2.6
Structure (SMILES): C[C@@H]1Cc2c([nH]c3ccccc23)[C@@H](c2c(F)cc(OCCNCCCF)cc2F)N1CC(C)(F)CO (single isomer, unassigned) [Example 17]

- Human plasma protein binding (% free) [1]: 0.61 % free
- solubility at 24 h [2, 5]: 12 µM (≈ 5.95 µg/mL)
- logD [3]: 4.1
Structure (SMILES): C[C@@H]1Cc2c([nH]c3ccccc23)[C@@H](c2c(F)cc(OCCNCCCF)cc2F)N1CC(C)(F)F [Example 12, N-(2-(4-((1R,3R)-2-(2,2-difluoropropyl)-3-methyl-2,3,4,9-tetrahydro-1H-pyrido[3,4-b]indol-1-yl)-3,5-difluorophenoxy)ethyl)-3-fluoropropan-1-amine]

- Human plasma protein binding (% free) [1]: 2.1 % free
- solubility at 24 h [2, 5]: 149 µM (≈ 70.3 µg/mL)
- IC50 [4]: 0.48 nM
- logD [3]: 3.4
Structure (SMILES): C[C@@H]1Cc2c([nH]c3ccccc23)[C@@H](c2ccc(OCCNCCCF)cc2F)N1CC1(F)CC1 [Example 21, 3-fluoro-N-(2-(3-fluoro-4-((1R,3R)-2-((1-fluorocyclopropyl)methyl)-3-methyl-2,3,4,9-tetrahydro-1H-pyrido[3,4-b]indol-1-yl)phenoxy)ethyl)propan-1-amine]

- Human plasma protein binding (% free) [1]: 6.1 % free
- solubility at 24 h [2, 5]: 197 µM (≈ 96.1 µg/mL)
- logD [3]: 3
Structure (SMILES): C[C@@H]1Cc2c([nH]c3ccccc23)[C@@H](c2ccc(OCCNCCCF)cc2F)N1CC1(F)COC1 [Example 22, 3-fluoro-N-(2-(3-fluoro-4-((1R,3R)-2-((3-fluorooxetan-3-yl)methyl)-3-methyl-2,3,4,9-tetrahydro-1H-pyrido[3,4-b]indol-1-yl)phenoxy)ethyl)propan-1-amine]

- solubility at 24 h [2, 5]: 163 µM (≈ 77.5 µg/mL)
Structure (SMILES): COc1cc(OCCNCCCF)ccc1[C@@H]1c2[nH]c3ccccc3c2C[C@@H](C)N1CC(F)F [Example 43, N-(2-(4-((1R,3R)-2-(2,2-Difluoroethyl)-3-methyl-2,3,4,9-tetrahydro-1H-pyrido[3,4-b]indol-1-yl)-3-methoxyphenoxy)ethyl)-3-fluoropropan-1-amine]

- solubility at 24 h [2, 5]: 32 µM (≈ 15.3 µg/mL)
- IC50 [4]: 0.2 nM
- % downregulation [4]: (89%)
- logD [3]: 4.1
Structure (SMILES): C[C@@H]1Cc2c([nH]c3ccccc23)[C@@H](c2ccc(OCCNCCCF)cc2F)N1CC(C)(F)F [Example 55, N-(2-(4-((1R,3R)-2-(2,2-difluoropropyl)-3-methyl-2,3,4,9-tetrahydro-1H-pyrido[3,4-b]indol-1-yl)-3-fluorophenoxy)ethyl)-3-fluoropropan-1-amine]

- solubility at 24 h [2, 5]: 418 µM (≈ 211 µg/mL)
Structure (SMILES): COc1cc(OCCNCCCF)ccc1[C@@H]1c2[nH]c3ccccc3c2C[C@@H](C)N1CC(F)(F)CO [Example 58, 2,2-difluoro-3-((1R,3R)-1-(4-(2-((3-fluoropropyl)amino)ethoxy)-2-methoxyphenyl)-3-methyl-1,3,4,9-tetrahydro-2H-pyrido[3,4-b]indol-2-yl)propan-1-ol]

- solubility at 24 h [2, 5]: 192 µM (≈ 94 µg/mL)
- IC50 [4]: 0.21 nM
- logD [3]: 4
Structure (SMILES): COc1nc(NCCNCCCF)ccc1[C@@H]1c2[nH]c3ccccc3c2C[C@@H](C)N1CC(C)(F)F [Example 78, N1-(5-((1R,3R)-2-(2,2-difluoropropyl)-3-methyl-2,3,4,9-tetrahydro-1H-pyrido[3,4-b]indol-1-yl)-6-methoxypyridin-2-yl)-N2-(3-fluoropropyl)ethane-1,2-diamine]
